Data from patent US20250235432A1, “METHODS OF TREATING CANCERS” (Foghorn Therapeutics Inc., priority 2018, published 2025).

Tests used:
Format in all cases: cell-based
[1] = tested on: parental MP41 and PKCi-resistant MP41 uveal melanoma cells; test: 7-day growth inhibition assay, parental and PKC inhibitor-resistant cells
Method: Procedure: Uveal melanoma cell lines (92-1, MP41, MP38, MP46), prostate cancer cell lines (LNCAP), lung cancer cell lines (NClH1299), and immortalized embryonic kidney lines (HEK293T) were plated into 96 well plates with growth media (see Table 1). […] Cells were incubated at 37° C. for 3 days. After 3 days of treatment, the media was removed from the cells, and 30 microliters of TrypLE (Gibco) was added to cells for 10 minutes. Cells were detached from the plates and resuspended with the addition of 170 microliters of growth media. Cells from two DMSO-treated control wells were counted, and the initial number of cells plated at the start of the experiment, were re-plated into fresh-compound containing plates for an additional four days at 37° C. At day 7, cells were harvested as described above.
On day 3 and day 7, relative cell growth was measured by the addition of Cell-titer glo (Promega), and luminescence was measured on an Envision plate reader (Perkin Elmer).
Procedure: MP41 uveal melanoma cells were made resistant to the PKC inhibitor (LXS196; MedChemExpress), by long-term culture in growth media (see Table 1) containing increasing concentrations of the compound, up to 1 micromolar. After 3 months, sensitivity of the parental MP41 cells and the PKC inhibitor (PKCi)-resistant cells to the PKC inhibitor (LXS196) or the BRG1/BRM ATPase inhibitor (compound 18) was tested in a 7-day growth inhibition assay as described above in Example 2.

[2] = tested on: uveal melanoma cell lines 92-1 or MP41; test: 3-day growth inhibition of uveal melanoma cell lines, comparison to clinical PKC and MEK inhibitors; details: for onset of growth inhibition compared to the clinical PKC and MEK inhibitors: 92-1 or MP41; for growth inhibition of uveal melanoma cells compared to the clinical PKC and MEK inhibitors (LXS196, Selumetinib): 92-1 or MP41, 3 days, 0 to 10 micromolar
Method: Procedure: Uveal melanoma cell lines, 92-1 or MP41, were plated in 96 well plates in the presence of growth media (see Table 1). […] Cells were incubated at 37° C. for 3 days. After 3 days of treatment, cell growth was measured with Cell-titer glow (Promega), and luminescence was read on an Envision plate reader (Perkin Elmer).
Procedure: Uveal melanoma cell lines, 92-1 or MP41, were plated in 96 well plates in the presence of growth media (see Table 1). BAF ATPase inhibitor (compound 18), PKC inhibitor (LXS196; MedChemExpress), and MEK inhibitor (Selumetinib; Selleck Chemicals) were dissolved in DMSO and added to the cells in a concentration gradient from 0 to 10 micromolar at the time of plating. Cells were incubated at 37° C. for 3 days. After three days of treatment, cell growth was measured with Cell-titer glow (Promega), and luminescence was read on an Envision plate reader (Perkin Elmer).

[3] = tested on: uveal melanoma cell lines (92-1, MP41, MP38, MP46); test: 3-day growth inhibition of uveal melanoma and non-small cell lung cancer cell lines; details: 3 days, 0 to 10 micromolar, FIG. 5
Method: Procedure: Uveal melanoma cell lines (92-1, MP41, MP38, MP46) and non-small cell lung cancer cells (NCl-H1299) were plated into 96 well plates with growth media (see Table 1). BRG1/BRM ATPase inhibitor, compound 18, was dissolved in DMSO and added to the cells in a concentration gradient from 0 to 10 micromolar at the time of plating. Cells were incubated at 37° C. for 3 days. After three days of treatment, cell growth was measured with Cell-titer glow (Promega), and luminescence was read on an Envision plate reader (Perkin Elmer).

Compound	tolerance of PKCi-resistant cells relative to the parental MP41 cell line ([1]; 7-day assay, FIG. 7A)	onset of growth inhibition compared to the clinical PKC and MEK inhibitors [2]	growth inhibition of uveal melanoma cells compared to the clinical PKC and MEK inhibitors (LXS196, Selumetinib) [2]	sensitivity of PKCi-resistant cells relative to parental MP41 cells ([1]; 7-day assay, FIG. 7B)	growth inhibition of both the PKCi-resistant and parental cell lines ([1]; MP41, 7-day assay, FIG. 7B)	growth inhibition in the uveal melanoma cell lines [3]
CC1(N)CCN(c2cccnc2NC(=O)c2nc(-c3ncccc3C(F)(F)F)cnc2N)CC1 [LXS196, reference compound]	could tolerate growth at higher concentrations	–	–	–	–	–
CSCC[C@H](NC(=O)c1ccc(N)cc1)C(=O)Nc1nc(-c2cccc(-c3ccncc3)c2)cs1 [compound 17, 4-amino-N-[(1S)-3-methylsulfanyl-1-[[4-[3-(4-pyridyl)phenyl]thiazol-2-yl]carbamoyl]propyl]benzamide]	–	faster onset of inhibition	comparable growth inhibition	–	–	–
CSCC[C@H](NC(=O)c1ccn(S(C)(=O)=O)c1)C(=O)Nc1nc(-c2cccc(-c3ccncc3)c2)cs1 [compound 18, (S)-1-(methylsulfonyl)-N-(4-(methylthio)-1-oxo-1-((4-(3-(pyridin-4-yl)phenyl)thiazol-2-yl)amino)butan-2-yl)-1H-pyrrole-3-carboxamide]	–	faster onset of growth inhibition	more potent effects on growth inhibition	more sensitive	strong growth inhibition	potent growth inhibition
